This is an account of results in ChEMBL document CHEMBL1127903, “Heteroaromatic Taxol Analogues: The Chemistry and Biological Activities of 3-Furyl and 3-Pyridyl Substituted Taxanes” (1994).

Test [1] relates to B16. The test is described as follows: Tested for cytotoxic effect against B16 melanoma cells relative to taxol as1. Type of test: functional, Mus musculus.
Test [2] deals with Tubulin alpha chain (Sus scrofa) (UniProt P02550). In words: Tested for the effect on polymerization of the tubulin present by microtubule assembly assay relative to taxol as1. Type of test: functional.
The target is the same in test [3]. In words: Tested for the effect on polymerization of the tubulin present by microtubule assembly assay. It is filed as functional.
Test [4] has as its system B16. In words: Tested for cytotoxic effect against B16 melanoma cells. Type of test: functional, Mus musculus.

Sequence of Tubulin alpha chain (Sus scrofa) (P02550 whole entry, looked up): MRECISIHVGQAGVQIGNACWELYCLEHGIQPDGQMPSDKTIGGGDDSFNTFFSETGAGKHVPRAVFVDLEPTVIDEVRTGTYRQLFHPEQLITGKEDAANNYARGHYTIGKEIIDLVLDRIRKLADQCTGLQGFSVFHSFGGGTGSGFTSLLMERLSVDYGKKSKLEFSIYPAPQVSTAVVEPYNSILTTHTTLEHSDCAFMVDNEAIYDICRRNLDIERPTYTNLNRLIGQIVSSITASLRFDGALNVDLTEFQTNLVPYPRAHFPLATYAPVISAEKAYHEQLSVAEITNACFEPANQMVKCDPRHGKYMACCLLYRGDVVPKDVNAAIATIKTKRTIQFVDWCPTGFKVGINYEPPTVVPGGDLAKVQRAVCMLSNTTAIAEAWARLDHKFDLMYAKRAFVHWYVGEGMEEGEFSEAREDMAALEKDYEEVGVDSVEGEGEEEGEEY

With `CC(=O)O[C@H]1C(=O)[C@@]2(C)[C@H]([C@H](OC(=O)c3ccccc3)[C@]3(O)C[C@H](OC(=O)[C@H](O)[C@@H](NC(=O)c4ccccc4)c4ccoc4)C(C)=C1C3(C)C)[C@]1(OC(C)=O)CO[C@@H]1C[C@@H]2O`, the ED50 ratio in test [1] was determined as 3.3; in test [2] it was 0.9.
As for `CC(=O)O[C@H]1C(=O)[C@@]2(C)[C@H]([C@H](OC(=O)c3ccccc3)[C@]3(O)C[C@H](OC(=O)[C@H](O)[C@@H](NC(=O)c4ccccc4)c4ccncc4)C(C)=C1C3(C)C)[C@]1(OC(C)=O)CO[C@@H]1C[C@@H]2O`, the ED50 ratio was found to be 1.3 in test [1] and 0.4 in test [2].
Turning to `CC(=O)O[C@H]1C(=O)[C@@]2(C)[C@H]([C@H](OC(=O)c3ccccc3)[C@]3(O)C[C@H](OC(=O)[C@H](O)[C@@H](NC(=O)c4ccccc4)c4ccccc4)C(C)=C1C3(C)C)[C@]1(OC(C)=O)CO[C@@H]1C[C@@H]2O` [PACLITAXEL], the ED50 ratio in test [3] and in test [4] was 1 in each case.
As to `CC(=O)O[C@H]1C(=O)[C@@]2(C)[C@H]([C@H](OC(=O)c3ccccc3)[C@]3(O)C[C@H](OC(=O)[C@H](O)[C@@H](NC(=O)c4ccccc4)c4ccccn4)C(C)=C1C3(C)C)[C@]1(OC(C)=O)CO[C@@H]1C[C@@H]2O`, the results for the ED50 ratio in test [1] and in test [2] were 0.8 and 0.7, respectively.
Take `CC(=O)O[C@H]1C(=O)[C@@]2(C)[C@H]([C@H](OC(=O)c3ccccc3)[C@]3(O)C[C@H](OC(=O)[C@H](O)[C@@H](NC(=O)c4ccccc4)c4cccnc4)C(C)=C1C3(C)C)[C@]1(OC(C)=O)CO[C@@H]1C[C@@H]2O`: the ED50 ratio in test [1] was determined as 27; in test [2], 0.5.
The like results for `CC(=O)O[C@H]1C(=O)[C@@]2(C)[C@H]([C@H](OC(=O)c3ccccc3)[C@]3(O)C[C@H](OC(=O)[C@H](O)[C@@H](NC(=O)c4ccccc4)c4ccco4)C(C)=C1C3(C)C)[C@]1(OC(C)=O)CO[C@@H]1C[C@@H]2O` were, in that order, 0.3 and 0.9.
